Measured values published in paper PMC5342591, “Development of a selected reaction monitoring mass spectrometry-based assay to detect asparaginyl endopeptidase activity in biological fluids” (Oncotarget, 2016).
Square brackets hold non-standard residues; d marks the D form. Peptide text beside a SMILES is read from it.

Key:
[1] = Stability of cleaved substrate in plasma, SRM-MS; type: in vitro ADME; conditions: human plasma 25 μl diluted fivefold in assay buffer pH 5.8, 1 pmole to 1 amole spiked, ACN precipitation, n = 3
Description: Figure 2 Detection of Cleaved Substrate Peptide by Mass Spectrometry A-B. 10 ng of recombinant AEP (rAEP) was incubated with 1 μg (0.65 mM) synthetic substrate peptide (hpvFAANDVSKvph) overnight at 37°C. Samples were dried down by vacuum centrifuge and resuspended in LB. 5 pmole of the substrate was loaded on to the liquid chromatography column and cleaved substrate was analysed by SRM MS (A) followed by an DDA workflow (B). (A) Three SRM transitions (b4-481.25^+, b5-552.29^+, b6-623.33^+) were used to detect the cleaved substrate, sequenced as hpvFAAN (378.2^2+ precursor ion). The target peptide eluted at 32 min during the chromatographic gradient. (B) Product ion scans of precursor 378.2^2+ as analysed by DDA. C. […] Samples were resuspended in LB and analyzed by SRM MS. […]
For an assay to measure enzyme activity it is important that the product is stable for the duration of the assay and is present at a level that can be detected. The limit of detection (LOD) and stability of the product hpvFAAN were analysed by serial dilution down to 1 amole in the presence or absence of plasma using SRM MS analysis. This allowed the LOD to be calculated as 2 amole with a linear response up to 1 pmole without a plasma background (Figure 2C). […]

[2] = biological target: T1, recombinant human AEP (rAEP) (Homo sapiens, UniProt Q99538); assay: Michaelis-Menten / Lineweaver-Burk kinetics of rAEP with synthetic substrate, product measured by SRM-MS; type: biochemical; conditions: 16 hr incubation at 37°C; 10 ng rAEP; substrate 0.02 mM to 1.3 mM; Lineweaver-Burk plot; SRM-MS peak area of product; n = 3
T1 construct: 7xHis (N); purchased R & D Systems, Abingdon, UK; host or cells: NS0 murine myeloma cell line
T1 sequence (Q99538 18-323 limits assumed): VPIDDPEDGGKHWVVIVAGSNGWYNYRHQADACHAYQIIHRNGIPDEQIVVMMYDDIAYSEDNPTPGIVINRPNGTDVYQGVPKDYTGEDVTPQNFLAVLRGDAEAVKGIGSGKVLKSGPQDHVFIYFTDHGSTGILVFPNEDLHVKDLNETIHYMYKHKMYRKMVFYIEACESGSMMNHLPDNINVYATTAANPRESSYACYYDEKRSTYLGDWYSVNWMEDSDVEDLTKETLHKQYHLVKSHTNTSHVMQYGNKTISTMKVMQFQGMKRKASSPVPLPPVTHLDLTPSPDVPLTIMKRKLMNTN
Description: Figure 3 Development of Assay Conditions to Monitor AEP Activity in Plasma A. The level of hydrolysis of AEP substrate with respect to time. 2.44 ng/μl and 9.1 ng/μl of rAEP were spiked into a background of pH modified plasma (pH 5.8) and assayed by SRM-MS for the product peptide. Error bars shown are +/−SD (n = 3). B-C. Rate of AEP activity assayed with different concentrations of substrate (hpvFAANDVSKvph) ranging from 0.02 mM to 1.3 mM. Area under the curve, drawn from SRM-MS of the product peptide, was used to obtain the rate of reaction for AEP activity as shown in Michaelis-Menten Curve (B). […] D. The linearity and limit-of-detection of the AEP assay was investigated by measuring the amount of hydrolysis by 2.0 pg to 0.25 ng of rAEP spiked into 25 μl of plasma and product measured by SRM-MS of Error bars shown are +/−SEM (n = 3). The assay was repeated three times and a technical variance of 3-28% was calculated.
To optimise substrate concentration in our assay, 10 ng of rAEP was incubated with 0.02 mM to 1.3 mM of synthetic substrate for 1 hr, 4 hr (Supplementary Figure S2) or 16 hr (Figure 3B and 3C) at 37°C. The rate of reaction was determined from the amount of product formed per hour and used for Michaelis-Menten enzyme kinetic analysis (Figure 3B). […]
All samples were analysed on a 6500 Q-TRAP (AB Sciex, Warrington, UK) coupled to a nano Acquity uPLC (Waters Inc, MA, US). […]

Row | SMILES | Stability of the product in plasma [1] | Km [2]
1 | CC(C)[C@@H](NC(=O)[C@H]1CCCN1C(=O)[C@H](N)Cc1c[nH]cn1)C(=O)N[C@@H](Cc1ccccc1)C(=O)N[C@@H](C)C(=O)N[C@@H](C)C(=O)N[C@@H](CC(N)=O)C(=O)O [hpvFAAN] (H-[dH][dP][dV]FAAN-OH) | stable | –
2 | CC(C)[C@H](NC(=O)[C@H](CC(=O)O)NC(=O)[C@H](CC(N)=O)NC(=O)[C@H](C)NC(=O)[C@H](C)NC(=O)[C@H](Cc1ccccc1)NC(=O)[C@H](NC(=O)[C@H]1CCCN1C(=O)[C@H](N)Cc1c[nH]cn1)C(C)C)C(=O)N[C@@H](CO)C(=O)N[C@@H](CCCCN)C(=O)N[C@@H](C(=O)N1CCC[C@@H]1C(=O)N[C@H](Cc1c[nH]cn1)C(=O)O)C(C)C [hpvFAANDVSKvph] (H-[dH][dP][dV]FAANDVSK[dV][dP][dH]-OH) | – | 400 µM
